Measurements published in publication PMC12736194, “1-Azinyl-1′-Alkenylferrocenes with Anticholinesterase, Antioxidant, and Antiaggregating Activities as Multifunctional Agents for Potential Treatment of Alzheimer’s Disease” (Pharmaceuticals, 2025).

Assays:
[1] = Ferric reducing antioxidant power (FRAP) assay;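 as to Exp. FRAP, TE: same experimental FRAP TE values reprinted in Table 4 beside calculated BDE and IP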; conditions: for Exp. FRAP, TE: Water, Table 4; for Ferric Reducing Antioxidant Power, TE: Trolox equivalents, acetate buffer pH 3.6, 1 h, 37 °C
[2] = ABTS radical cation scavenging activity assay;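 as to Exp. ABTS, TEAC: same experimental ABTS TEAC values reprinted in Table 4 beside calculated BDE and IP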; conditions: for Exp. ABTS, TEAC: Ethanol, Table 4; for IC50: ABTS^•+ 100 μM; for IC50 / ABTS^•+-Scavenging Activity, TEAC: ethanol, 1 h; for ABTS^•+-Scavenging Activity, TEAC: Trolox equivalent antioxidant capacity, mean ± SEM, n = 3
[3] = molecular target: T1, human β-amyloid (1–42) (HsAβ42) (Homo sapiens, UniProt P05067); experiment: Inhibition of HsAβ42 self-aggregation (thioflavin T fluorescence); type: biochemical; conditions: HsAβ42 50 µM, compound 100 µM, 24 h, 37 °C; n.a. = not active
T1 construct: purchased AnaSpec Inc
T1 sequence (P05067 672-713 limits assumed): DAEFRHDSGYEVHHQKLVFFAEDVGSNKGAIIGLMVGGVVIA
Protocol: The potential of compounds from all three groups (1a-e, 5a-e, 7a-d) to inhibit HsAβ42 self-aggregation was evaluated using a Thioflavin T (ThT) fluorescence assay.
Inhibition of HsAβ42 self-aggregation by test compounds was studied using the thioflavin T (ThT) fluorescence method with minor modifications as described in detail in [79]. Lyophilized HFIP-pretreated HsAβ42 (AnaSpec Inc., Fremont, CA, USA, 0.5 mg) was dissolved in DMSO to obtain a stable 500 μM solution. The samples of 50 μM HsAβ42 in 215 mM Na-phosphate buffer pH 8.0 were incubated for 24 h at 37 °C in the absence or presence of 100 μM test compounds. Myricetin in the same concentration was used as a reference. After incubation, 5 μM ThT in 50 mM glycine-NaOH buffer pH 8.5 was added, and the fluorescence was measured at 440 nm (exc.) and 485 nm (emis.) with a FLUOStar Optima microplate reader. Blanks consisted of 215 mM Na-phosphate buffer, pH 8.0, 20% (v/v) DMSO or test compounds, respectively. The inhibition (%) of HsAβ42 self-aggregation by the test compounds was calculated.

[4] = molecular target: T2, equine (Equus caballus) serum BChE (EcBChE) (Equus caballus, UniProt P81908); experiment: Inhibition of EcBChE (spectrophotometric, BTCh iodide substrate); type: biochemical; conditions: mean ± SEM, n = 3; for Inhibition of EcBChE, % inhibition at 20 μM: compound 20 μM, n.a. = not active
T2 construct: equine (Equus caballus) serum BChE (EcBChE); purchased Sigma-Aldrich; host or cells: horse serum
T2 sequence (P81908 whole entry): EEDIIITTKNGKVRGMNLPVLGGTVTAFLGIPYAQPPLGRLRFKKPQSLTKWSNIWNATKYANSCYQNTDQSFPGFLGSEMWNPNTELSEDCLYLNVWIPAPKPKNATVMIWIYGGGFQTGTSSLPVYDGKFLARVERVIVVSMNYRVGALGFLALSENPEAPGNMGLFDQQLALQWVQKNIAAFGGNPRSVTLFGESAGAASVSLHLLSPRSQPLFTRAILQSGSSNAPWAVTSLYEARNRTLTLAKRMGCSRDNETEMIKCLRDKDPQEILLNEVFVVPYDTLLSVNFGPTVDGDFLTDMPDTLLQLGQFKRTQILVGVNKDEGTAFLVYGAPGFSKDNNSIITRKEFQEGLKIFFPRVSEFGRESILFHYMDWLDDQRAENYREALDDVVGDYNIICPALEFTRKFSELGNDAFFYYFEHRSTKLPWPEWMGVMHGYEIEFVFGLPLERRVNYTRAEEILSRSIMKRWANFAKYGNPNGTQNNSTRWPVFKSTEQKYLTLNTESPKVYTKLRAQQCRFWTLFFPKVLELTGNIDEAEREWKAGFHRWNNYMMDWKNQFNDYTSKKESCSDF
Protocol: (§1) In these experiments, human (Homo sapiens) erythrocyte AChE (HsAChE), equine (Equus caballus) serum BChE (EcBChE), and porcine (Sus scrofa) liver CES (SsCES) were used because of their ready availability, relatively low cost, and high sequence homology of EcBChE and SsCES to the corresponding human enzymes.
(§2) Enzymes, substrates, and reference compounds were sourced from Sigma-Aldrich (St. Louis, MO, USA). Enzyme activity was measured spectrophotometrically according to [91] using ATCh iodide, BTCh iodide, and 4-NPA as substrates for HsAChE, EcBChE, and SsCES, respectively. Experimental conditions included a K/Na-phosphate buffer (100 mM), at 25 °C, with pH 7.5 for AChE and BChE assays, and pH 8.0 for CES assays. Measurements were conducted on a BioRad Benchmark Plus microplate spectrophotometer (Hercules, CA, USA). Test compounds were dissolved in DMSO with a final solvent concentration of 2% (v/v) in the incubation mixture.

[5] = molecular target: T3, peripheral anionic site (PAS) of Electrophorus electricus AChE (EeAChE) (Electrophorus electricus, UniProt O42275); experiment: Propidium displacement from the EeAChE PAS (fluorescence); type: binding; conditions: compound concentration 20 µM; EeAChE 7 μM, propidium iodide 8 μM, Tris-HCl pH 8.0; n.a. = not active
T3 construct: purchased Sigma-Aldrich type VI-S
T3 sequence (O42275 24-633): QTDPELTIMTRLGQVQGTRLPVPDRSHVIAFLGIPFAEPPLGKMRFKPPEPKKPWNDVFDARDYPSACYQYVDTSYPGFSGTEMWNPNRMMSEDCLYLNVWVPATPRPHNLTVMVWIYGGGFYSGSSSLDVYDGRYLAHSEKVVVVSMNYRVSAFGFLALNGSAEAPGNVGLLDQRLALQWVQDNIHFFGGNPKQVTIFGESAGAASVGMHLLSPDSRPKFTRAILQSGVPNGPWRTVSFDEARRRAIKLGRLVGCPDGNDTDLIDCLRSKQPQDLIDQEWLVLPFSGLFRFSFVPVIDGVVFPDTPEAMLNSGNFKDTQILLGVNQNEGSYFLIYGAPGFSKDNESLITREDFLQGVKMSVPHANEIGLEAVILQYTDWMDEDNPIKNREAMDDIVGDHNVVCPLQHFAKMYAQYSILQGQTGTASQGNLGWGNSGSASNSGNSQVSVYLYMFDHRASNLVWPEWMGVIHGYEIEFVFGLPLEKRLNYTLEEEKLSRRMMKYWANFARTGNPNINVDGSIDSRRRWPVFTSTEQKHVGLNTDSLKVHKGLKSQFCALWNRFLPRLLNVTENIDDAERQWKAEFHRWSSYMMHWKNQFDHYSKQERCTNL
Protocol: A fluorescence-based assay assessed the ability of test compounds to competitively displace propidium iodide from AChE’s PAS [65, 93]. […] EeAChE (7 μM) was incubated with 20 μM test compounds in Tris-HCl buffer (pH 8.0) for 15 min, followed by addition of propidium iodide (8 μM) as described in detail in [95]. Fluorescence readings (530 nm excitation, 600 nm emission) were obtained using a FLUOStar Optima microplate reader (LabTech, Ortenberg, Germany). Displacement (%) was calculated.

[6] = test system: porcine (Sus scrofa) liver CES (SsCES); experiment: Inhibition of SsCES (spectrophotometric, 4-NPA substrate); type: biochemical; conditions: mean ± SEM, n = 3; for Inhibition of SsCES, % inhibition at 20 μM: compound 20 μM, n.a. = not active
Text: as §1
Although the dominant carboxylesterase in porcine liver is CES1 [64], the preparation sourced from Sigma-Aldrich is not a purified or recombinant CES1. Therefore, we have designated the preparation used in our experimental studies as SsCES. However, in computational molecular docking studies, it is necessary to choose a single defined protein as the docking target. Thus, the logical choice for our computational studies of CES was the most abundant and best characterized isoform found in porcine liver, which is SsCES1.
as §2

[7] = molecular target: T4, human (Homo sapiens) erythrocyte AChE (HsAChE) (Homo sapiens, UniProt P22303); experiment: Inhibition of HsAChE (spectrophotometric, ATCh iodide substrate); type: biochemical; conditions: compound 20 μM; n.a. = not active; mean ± SEM, n = 3
T4 construct: human (Homo sapiens) erythrocyte AChE (HsAChE); purchased Sigma-Aldrich; host or cells: human erythrocytes
T4 sequence (P22303 32-617 isoform P22303-2 limits assumed): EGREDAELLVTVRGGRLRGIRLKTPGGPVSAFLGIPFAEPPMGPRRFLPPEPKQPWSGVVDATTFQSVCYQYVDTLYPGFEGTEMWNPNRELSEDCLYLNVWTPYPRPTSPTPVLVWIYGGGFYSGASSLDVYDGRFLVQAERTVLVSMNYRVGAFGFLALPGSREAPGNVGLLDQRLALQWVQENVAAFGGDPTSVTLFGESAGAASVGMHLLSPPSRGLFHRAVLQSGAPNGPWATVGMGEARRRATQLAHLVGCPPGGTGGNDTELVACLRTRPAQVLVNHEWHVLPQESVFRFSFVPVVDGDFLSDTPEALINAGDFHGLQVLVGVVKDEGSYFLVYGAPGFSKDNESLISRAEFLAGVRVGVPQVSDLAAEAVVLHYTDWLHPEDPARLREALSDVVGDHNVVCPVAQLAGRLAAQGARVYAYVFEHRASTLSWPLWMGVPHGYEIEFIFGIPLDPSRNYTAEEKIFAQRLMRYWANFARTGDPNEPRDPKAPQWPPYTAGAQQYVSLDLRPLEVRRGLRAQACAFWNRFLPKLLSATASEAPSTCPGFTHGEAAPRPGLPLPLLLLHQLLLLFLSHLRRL
Protocol: as §1, §2

SMILES | Exp. FRAP, TE [1] | Exp. ABTS, TEAC [2] | Ferric Reducing Antioxidant Power, TE [1] | HsAβ42 self-Aggregation Inhibition, (%) [3] [%] | IC50 [2] [µM] | ABTS^•+-Scavenging Activity, TEAC [2] | Inhibition of EcBChE, % inhibition at 20 μM [4] [%] | Propidium Displacement, (%) [5] | Inhibition of SsCES, % inhibition at 20 μM [6] [%] | Inhibition of HsAChE, % inhibition at 20 μM [7] [%] | IC50 ([6]; K/Na-phosphate buffer pH 8.0, 25 °C) [µM] | IC50 ([4]; K/Na-phosphate buffer pH 7.5, 25 °C) [µM]
C=C[c-]1cccc1.[Fe+2].c1ccc2c(-[c-]3cccc3)c3ccccc3[nH+]c2c1 [7cp] | 1.36 ± 0.01 |  |  |  |  |  |  |  |  |  |  | 
[Fe+2].c1cc[cH-]c1.c1ccc(-[c-]2cccc2)[nH+]c1 [1ap] | 2.05 ± 0.02 | 2.10 ± 0.10 |  |  |  |  |  |  |  |  |  | 
[Fe+2].c1cc[cH-]c1.c1cc[cH-]c1 [Fc, ferrocene] | 0.79 ± 0.02 | 0.57 ± 0.03 | 0.79 ± 0.02 | 3.5 ± 0.4 | 32.9 ± 1.9 | 0.57 ± 0.03 | 6.7 ± 1.0 | zero | 4.2 ± 0.7 | 9.6 ± 1.4 |  | 
Cc1c(C)c2c(c(C)c1O)CCC(C)(C(=O)O)O2 (centres unmarked) [Trolox, reference compound] |  |  | 1.0 |  | 20.1 ± 1.2 | 1.0 |  |  |  |  |  | 
O=[N+]([O-])c1ccc(OP(=O)(O)Oc2ccc([N+](=O)[O-])cc2)cc1 [BNPP, bis-4-nitrophenyl phosphate, reference compound] |  |  |  |  |  |  |  |  | 99.1 ± 0.9 |  | 1.8 | 
C=C[c-]1cccc1.[Fe+2].c1ccc2[nH+]c(-[c-]3cccc3)ccc2c1 [7bp] | 2.21 ± 0.02 |  |  |  |  |  |  |  |  |  |  | 
C=C(C)[c-]1cccc1.[Fe+2].c1ccc2[nH+]c(-[c-]3cccc3)ccc2c1 [5bp] | 3.13 ± 1.7 | 4.30 ± 0.20 |  |  |  |  |  |  |  |  |  | 
C=C[c-]1cccc1.[Fe+2].c1ccc(-[c-]2cccc2)[nH+]c1 [7ap] | 2.13 ± 0.03 | 2.60 ± 0.03 |  |  |  |  |  |  |  |  |  | 
[Fe+2].c1cc[cH-]c1.c1ccc(-[c-]2cccc2)nc1 [1a] |  | 2.10 ± 0.10 | 2.05 ± 0.02 | 43.4 ± 3.4 | 10.8 ± 0.6 | 2.1 ± 0.1 | 20.3 ± 1.4 | zero | 17.5 ± 1.3 |  |  | 
[Fe+2].c1cc[cH-]c1.c1ccc2c(-[c-]3cccc3)c3ccccc3nc2c1 [1c] |  |  | 1.59 ± 0.17 | 71.0 ± 4.9 | 14.6 ± 0.3 | 1.50 ± 0.08 | 21.2 ± 1.6 | 11.2 ± 0.9% |  | 6.5 ± 0.8 |  | 
C=C(C)[c-]1cccc1.[Fe+2].c1ccc2c(-[c-]3cccc3)c3ccccc3nc2c1 [5c] |  |  | 2.45 ± 0.14 | 90.1 ± 7.2 | 15.8 ± 0.8 | 1.35 ± 0.06 |  | 10.5 ± 0.9% |  | 36.7 ± 3.3 |  | 96.7 ± 6.6
C=C(C)[c-]1cccc1.[Fe+2].c1cc[c-](-c2ccnnc2)c1 [5e, 1-Isopropenyl-1′-(Pyridazin-4-yl)Ferrocene] |  |  | 2.65 ± 0.02 | 48.6 ± 3.5 | 9.3 ± 0.4 | 2.5 ± 0.2 |  | zero |  |  |  | 
[Fe+2].c1cc[c-](-c2ccnnc2)c1.c1cc[cH-]c1 [1e, 1-(pyridazin-4-yl)ferrocene] |  |  | 1.72 ± 0.02 | 53.3 ± 3.7 | 9.2 ± 0.5 | 2.3 ± 0.1 | 13.1 ± 1.4 | zero |  |  |  | 
C=C(C)[c-]1cccc1.[Fe+2].c1ccc2c(-[c-]3cccc3)c3ccccc3[nH+]c2c1 [5cp] | 2.45 ± 0.14 | 1.35 ± 0.06 |  |  |  |  |  |  |  |  |  | 
C=C[c-]1cccc1.[Fe+2].c1cc[cH-]c1 [compound 9, vinylferrocene, reference compound] | 1.04 ± 0.02 | 1.00 ± 0.04 | 1.04 ± 0.02 | 44.9 ± 3.1 | 19.4 ± 0.1 | 1.00 ± 0.04 |  | zero | 23.4 ± 2.1 | 4.2 ± 0.9 |  | 
C=C(C)[c-]1cccc1.[Fe+2].c1ccc(-[c-]2cccc2)[nH+]c1 [5ap] | 2.85 ± 1.3 | 2.20 ± 0.10 |  |  |  |  |  |  |  |  |  | 
C=C(C)[c-]1cccc1.[Fe+2].c1cc[cH-]c1 [compound 8, isopropenylferrocene, reference compound] | 1.10 ± 0.10 | 0.73 ± 0.04 | 1.1 ± 0.1 |  | 26.3 ± 1.5 | 0.73 ± 0.04 | 3.9 ± 0.8 | zero | 2.9 ± 0.6 |  |  | 
[Fe+2].c1cc[cH-]c1.c1ccc2[nH+]c(-[c-]3cccc3)ccc2c1 [1bp] | 2.21 ± 0.01 | 4.20 ± 0.20 |  |  |  |  |  |  |  |  |  | 
C=C(C)[c-]1cccc1.[Fe+2].c1ccc(-[c-]2cccc2)nc1 [5a] |  | 2.20 ± 0.10 | 2.85 ± 0.13 | 62.4 ± 4.9 | 9.4 ± 0.5 | 2.2 ± 0.1 | 18.3 ± 1.6 | zero |  | 4.4 ± 1.1 |  | 
[Fe+2].c1cc[cH-]c1.c1ccc2c(-[c-]3cccc3)c3ccccc3[nH+]c2c1 [1cp] | 1.59 ± 0.17 | 1.50 ± 0.08 |  |  |  |  |  |  |  |  |  | 
